Marks after values point to notes of the source that are not given here.
Assays:
[1] = target: T1, dihydrofolate reductase (DHFR) (Mus musculus, UniProt P00375); assay: Dihydrofolate reductase inhibition assay in RAW264.7 whole cell lysates; type: cell-based, murine; details: 100 nM plus 100-fold excess FA (10 μM), 2-hour pulse, 22-hour chase
T1 construct: endogenous in cells; host or cells: RAW264.7 cells (FR-positive subclone of ATCC TIB71)
T1 sequence (P00375 1-187): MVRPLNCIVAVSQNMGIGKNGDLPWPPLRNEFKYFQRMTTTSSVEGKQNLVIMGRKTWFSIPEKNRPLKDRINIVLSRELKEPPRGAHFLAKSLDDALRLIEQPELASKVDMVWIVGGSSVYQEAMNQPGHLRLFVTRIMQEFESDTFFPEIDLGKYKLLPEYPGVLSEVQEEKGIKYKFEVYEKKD
Description: RAW264.7 cells growing in FFRPMI medium in 10 cm cell culture dishes (BD Falcon, Lincoln Park, NJ, USA) were treated with EC0746 (100 nM), EC0746 (100 nM) plus 100-fold molar excess of FA (10 μM), or FA alone (10 μM). After a 2-hour exposure, the drug-containing media were replaced and the cells were allowed to incubate further for 22 hours in fresh FFRPMI medium (referred in the text as a 22-hour chase). Meanwhile, AMT and MTX were kept at 100 nM for the entire 24-hour incubation period. All cells were subsequently lysed in the radioimmunoprecipitation assay lysis buffer, and DHFR activities in the whole cell lysates were determined using a commercial DHFR assay kit (Sigma-Aldrich). This spectrophotometric assay monitors the enzymatic conversion of dihydrofolic acid to tetrahydrofolic acid by DHFR and the disappearance of the co-factor nicotinamide adenine dinucleotide phosphate at 340 nm. The results were normalized to the values of the untreated control cells.

[2] = Plasma pharmacokinetics after single subcutaneous dose; type: in vivo, rat
Description: Female Lewis rats with jugular vein catheters (Harlan Sprague Dawley) were used to assess the plasma pharmacokinetics of EC0746 and unconjugated AMT. The animals were divided into two main groups, one given a single dose of EC0746 s.c. and the second a single dose of AMT s.c., both at 500 nmol/kg. Whole blood samples (300 μl) were collected from three animals per time point at the following time points: 1 minute, 10 minutes, 30 minutes, 1 hour, 2 hours, 3 hours, 4 hours, and 8 hours after injection. The blood samples were placed into anticoagulant tubes containing 1.7 mg/ml K3EDTA and 0.35 mg/ml N-maleoyl-β-alanine (0.35 mg/ml) in a 0.15% acetic acid solution. Plasma samples were obtained by centrifugation for 3 minutes at ~2,000 × g and stored at -80°C. The amounts of EC0746 and AMT in the plasma and the two primary metabolites of EC0746 (AMT and AMT hydrazide) were determined by liquid chromatography/mass spectrometry/mass spectrometry.

[3] = tested on: adjuvant-induced arthritis; assay: Rat adjuvant-induced arthritis (AIA) model; type: in vivo; details: for Inhibition in paw edema (%): paw weight day 24; for Body weight change (%): day 24 relative to day 10
Description: The rats were then inoculated intradermally (at the base of tail) with 0.5 mg heat-killed M. butyricum (BD Diagnostic Systems) in 100 μl light mineral oil (Sigma-Aldrich, St Louis, MO, USA). […] For each study, two or three rats from the same colony were not induced for arthritis and were used as healthy controls.
Unless noted otherwise, all drug treatments started on day 10 after arthritis induction and lasted for two consecutive weeks with biweekly (BIW, Mondays and Thursdays) or once-weekly (QW, Mondays) dosing regimens.
EC0746 was given subcutaneously (s.c.) in a dosing range of 25 to 1,000 nmol/kg (QW or BIW); MTX was given s.c. or orally at 250 nmol/kg (BIW) or 1,650 nmol/kg (QW); and etanercept (10 mg/kg) was given s.c. once every 3 days for a 12-day span. The QW MTX dosing regimen was to mimic MTX administration in humans, and this particular dose of 1,650 nmol/kg per week (that is, 0.75 mg/kg per week) was reportedly active as an intraperitoneal agent in the AIA model. To distinguish the anti-inflammatory mechanisms of EC0746 and MTX in vivo, a therapeutically irrelevant folate-containing competitor (EC0923, molecular weight 672) was used in 500-fold molar excess to block the activities of EC0746 and MTX at 250 nmol/kg (BIW).
Formalin-fixed hind paws were examined by a board-certified veterinary radiologist who had no knowledge of the study groups. Specific criteria were used to establish a numerical grade of severity for each radiographic change: increased soft tissue volume (0 to 4), narrowing or widening of joint spaces (0 to 5), subchondral erosion (0 to 3), periosteal reaction (0 to 4), osteolysis (0 to 4), subluxation (0 to 3), and degenerative joint changes (0 to 3). Scores are limited to the tarsus, and the maximum possible score per foot was 26 [39]. The histopathological analysis was also performed in a blind fashion by an independent contract laboratory (Bolder BioPATH Inc., Boulder, CO, USA). The arthritic ankles were scored on a scale of 0 to 5 for inflammation, bone resorption, pannus formation, and cartilage damage, with a maximal histology score of 20 per foot.

[4] = preliminary study, 500 nmol/kg s.c. biweekly, low starting arthritis
[5] = preliminary study, 500 nmol/kg s.c. biweekly, more established disease
[6] = s.c., 25 nmol/kg biweekly from day 10
[7] = s.c., 100 nmol/kg biweekly from day 10
[8] = s.c., 250 nmol/kg biweekly from day 10
[9] = s.c., 250 nmol/kg biweekly plus 500-fold excess EC0923
[10] = s.c., 250 nmol/kg biweekly, alone
[11] = s.c., 500 nmol/kg biweekly from day 10
[12] = s.c., 1,000 nmol/kg once weekly

Nc1nc(N)c2nc(CNc3ccc(C(=O)N[C@@H](CCC(=O)NNC(=O)OCCSSC[C@H](NC(=O)[C@H](CCC(=O)NC[C@H](O)[C@@H](O)[C@H](O)[C@H](O)CO)NC(=O)[C@H](CCC(=O)O)NC(=O)[C@H](CCC(=O)NC[C@H](O)[C@@H](O)[C@H](O)[C@H](O)CO)NC(=O)[C@H](CCC(=O)O)NC(=O)[C@H](CCC(=O)NC[C@H](O)[C@@H](O)[C@H](O)[C@H](O)CO)NC(=O)CC[C@H](NC(=O)c4ccc(NCc5cnc6nc(N)[nH]c(=O)c6n5)cc4)C(=O)O)C(=O)O)C(=O)O)cc3)cnc2n1 [EC0746]
DHFR inhibitory activity with excess FA [1]: blocked by excess FA | Active drug exposure/release (AMT plus AMT hydrazide) detected in plasma, based on AUC ([2]; EC0746 500 nmol/kg s.c., 8-hour collection period): ~ 18% | Area under the curve ([2]; after single s.c. dose of EC0746 500 nmol/kg, 8-hour collection, analyte = label): 32.5 nmol·min/mL | Elimination half-life ([2]; after single s.c. dose of EC0746 500 nmol/kg, analyte = label): ~ 35 minutes | Improvement in paw edema (percentage increase in paw weight) [3, 4]: ~ 10 fold | Improvement in splenomegaly (percentage increase in spleen weight) [3, 4]: threefold | Arthritis score maintained throughout study ([3]; preliminary study, 500 nmol/kg s.c. biweekly, mean starting arthritis score ~0 on day 10, score max 16): ~ 1 | Maximum reduction in arthritic scores ([3]; preliminary study, 500 nmol/kg s.c. biweekly, mean starting arthritis score ~2 (established disease)): ~ 50% | Improvement in paw edema (percentage increase in paw weight) [3, 5]: ~ 2.5 fold | Improvement in splenomegaly (percentage increase in spleen weight) [3, 5]: twofold | Splenomegaly (percentage increase in spleen weight relative to healthy rats) [3, 6]: 73 ± 8^e % | Inhibition in paw edema (%) [3, 6]: 0 ± 25^d % | Body weight change (%) ([3]; s.c., 25 nmol/kg biweekly): -17 ± 1% | Splenomegaly (percentage increase in spleen weight relative to healthy rats) [3, 7]: 52 ± 13^e % | Inhibition in paw edema (%) [3, 7]: 35 ± 11^d % | Body weight change (%) ([3]; s.c., 100 nmol/kg biweekly): -14 ± 1% | Animals with no lesions (histopathology of ankle) ([3]; s.c., 250 nmol/kg biweekly): three out of five | Decrease in summed histology scores ([3]; s.c., 250 nmol/kg biweekly): 94% | Reduction in dorsal to ventral paw thickness ([3]; s.c., 250 nmol/kg biweekly): 94% | Splenomegaly (percentage increase in spleen weight relative to healthy rats) [3, 8]: 25 ± 6^e % | Inhibition in paw edema (%) [3, 8]: 91 ± 4^d % | Decrease in inflammation score (histology) [3, 9]: 24% | Decrease in summed histology scores [3, 9]: ~ 19% | Reduction in dorsal to ventral paw thickness [3, 9]: 22% | Anti-arthritic activity with co-administered EC0923 ([3]; s.c., 250 nmol/kg biweekly plus 500-fold molar excess EC0923 (125 μmol/kg), all clinical parameters): nearly completely blocked | Radiographic analysis of arthritic paws ([3]; s.c., 250 nmol/kg biweekly plus EC0923 125 μmol/kg): significant joint erosions | Anti-arthritic activity (arthritis score, body weight, paw and spleen weights) [3, 10]: highly effective | Radiographic analysis of arthritic paws [3, 10]: minimal radiographic changes | Body weight change (%) ([3]; s.c., 250 nmol/kg biweekly): -0.5 ± 3% | Improvement in splenomegaly ([3]; s.c., 250 nmol/kg per dose biweekly, printed >3-fold to fourfold): > 3 fold | Splenomegaly (percentage increase in spleen weight relative to healthy rats) [3, 11]: 37 ± 7% | Inhibition in paw edema (%) [3, 11]: 91 ± 9% | Body weight change (%) ([3]; s.c., 500 nmol/kg biweekly): 0.4 ± 4% | Loss of original body weight due to arthritis progression [3, 12]: ~ 7% | Splenomegaly (percentage increase in spleen weight relative to healthy rats) [3, 12]: 39 ± 5% | Inhibition in paw edema (%) ([3]; s.c., 1,000 nmol/kg once weekly (days 10 and 17)): 72 ± 12% | Body weight change (%) [3, 12]: -7 ± 3%

— paper PMC3132048, “Treatment of experimental adjuvant arthritis with a novel folate receptor-targeted folic acid-aminopterin conjugate” (Arthritis Research & Therapy, 2011)
